# Laboratory results published in ChEMBL document CHEMBL3244242, “3-Benzazocine amidinium nitronates. An unusual type of opiate antagonist” (J Med Chem, 1978).
# Active and inactive are the calls of the source. No cut-off for these calls is given here.
# Tests used:
# Mus musculus [1] = assay: Analgesic activity in Swiss albino mouse at 5 to 20 mg/kg administered intramuscularly by mouse tail-flick test; format: functional, organism-based
# [2] = Solubility of the compound in water; format: physicochemical; conditions: buffer
# Mus musculus [3] = assay: Inhibition of morphine sulfate-induced analgesic activity in Swiss albino mouse at 20 mg/kg administered intramuscularly measured 30 mins post morphine sulfate challenge by mouse tail-flick test; format: functional, organism-based; set-up: dose 20 mg/kg
# Mus musculus [4] = assay: Inhibition of morphine sulfate-induced analgesic activity in sc dosed Swiss albino mouse measured 30 mins post morphine sulfate challenge by mouse tail-flick test; format: functional
# Mus musculus [5] = assay: Inhibition of morphine sulfate-induced analgesic activity in Swiss albino mouse at 20 mg/kg administered intramuscularly measured 8 hrs post morphine sulfate challenge by mouse tail-flick test; format: functional; conditions: route intramuscular
# Mus musculus [6] = assay: Analgesic activity in Swiss albino mouse at 20 mg/kg, sc by mouse tail-flick test; format: functional, organism-based; set-up: dose 20 mg/kg
# Mus musculus [7] = assay: Inhibition of morphine sulfate-induced analgesic activity in Swiss albino mouse at 20 mg/kg, sc measured 24 hrs post morphine sulfate challenge by mouse tail-flick test; format: functional; conditions: route subcutaneous
# Mus musculus [8] = assay: Inhibition of morphine sulfate-induced analgesic activity in Swiss albino mouse at 20 mg/kg, sc measured 48 hrs post morphine sulfate challenge by mouse tail-flick test relative to naloxone hydrochloride; format: functional, organism-based; set-up: dose 20 mg/kg
SMILES,Activity (Mus musculus [1]),solubility [2],Activity (Mus musculus [3]),AD50 (Mus musculus [4]) [mg/kg],Imax (Mus musculus [5]) [%],Activity (Mus musculus [6]),Imax (Mus musculus [7]) [%],inhibition (Mus musculus [8])
CN(C)C(=[NH2+])Cc1ccccc1.CN(C)C1=NC2c3ccccc3C(=[N+]([O-])[O-])C(C1c1ccccc1)C2[N+](=O)[O-] (centres undefined),inactive,Insoluble,inactive,,,,,
C[C@@H]1C2Cc3ccc([N+](=O)[O-])cc3[C@@]1(C)CCN2CC1CC1,,,,9.6,,,,
CN(C)C(=[NH2+])Cc1ccccc1.CN(C)C1=NC2c3cc([N+](=O)[O-])ccc3C(=[N+]([O-])[O-])C(C1c1ccccc1)C2[N+](=O)[O-] (centres undefined),inactive,Insoluble,inactive,,,,,
CN(C)C(=[NH2+])Cc1ccccc1.CN(C)C1=NC2C(=[N+]([O-])[O-])c3ccc([N+](=O)[O-])cc3C(C1c1ccccc1)C2[N+](=O)[O-] (centres undefined),inactive,Insoluble,,,50,,,
CN(C)C(=[NH2+])Cc1ccccc1.CN(C)C1=NC2C(=[N+]([O-])[O-])c3c(cccc3[N+](=O)[O-])C(C1c1ccccc1)C2[N+](=O)[O-] (centres undefined),,Insoluble,,,,inactive,50,Active
